Data published in patent US20220125745A1, “PHARMACEUTICAL COMPOSITION FOR CO-ADMINISTRATION OF ACIDOSIS-INDUCING DRUG” (HAIM BIO CO., LTD., priority 2018, published 2022).
Like-named read-outs stand apart in the source and are kept apart here.

Legend:
[1] = tested on: L132 cells (normal cells); test: Lactate assay (luminescence) in L132 cells, candidate substance alone or combined with a substance that causes lactic acidosis; assay type: cell-based; settings: L132; for activity at 50 µM: Homo sapiens
Procedure: (§1) To identify the effects of administration of the candidate substances for lactic acidosis treatment as described in Example 1 in combination with the above-mentioned substances that cause lactic acidosis, A549 cells (cancer cells) or L132 cells (normal cells) were respectively seeded in 96- or 24-well plates at a concentration of 1×10^4 or 3×10^5 cells/well, and incubation was performed overnight. Administration of the candidate substance for acidosis treatment in combination with the substance that causes lactic acidosis was performed and incubation was further performed for 24 hours. For the candidate substances for acidosis treatment, each substance was administered at a uniform concentration of 50 μM; and for the substances that cause lactic acidosis, metformin was administered at 1 to 100 μM, isoniazid was administered at 1 to 500 μM, berberine was administered at 10 μM, linezolid was administered at 200 μM, and phenformin was administered at 100 μM. All substances were dissolved in dimethyl sulfoxide (DMSO, Sigma-Aldrich Corporation, St. Louis, Mo., USA), and the substances to be administered in combination were administered simultaneously. Subsequently, 50 μl of the cell culture solution obtained by being diluted with Dulbecco's Phosphate-Buffered Saline (DPBS; Wellgene, Korea), and 50 μl of the lactate assay reaction buffer (Promega, Madison, Wis., USA) were mixed and the mixture was added in a 96-well plate. Reaction was allowed to proceed at room temperature for 1 hour. Then, luminescence was measured with a spectrophotometer (Synergy HTX Multi-Reader; BioTek, Winooski, Vt., USA). At the same time, the number of cells in each sample was measured with a cell viability analysis kit (Cell Counting Kit-8; Dojindo Molecular Technologies, Inc., Kumamoto, Japan), and calculation was performed so that the lactic acid measurement value in each sample could be compared with that in the negative control for the same number of cells.

[2] = tested on: A549 cells (cancer cells); test: Lactate assay (luminescence) in A549 cells, candidate substance alone or combined with a substance that causes lactic acidosis; assay type: cell-based; settings: A549; for activity at 50 µM: Homo sapiens
Procedure: as §1

[3] = candidate 50 μM alone, no berberine, 24 h, vs negative control, mean ± SEM, read-out: Luminescence intensity (%), Berberine (10 μM) −
[4] = candidate 50 μM alone, no linezolid, 24 h, vs negative control, mean ± SEM, read-out: Luminescence intensity (%), Linezolid (200 μM) −
[5] = candidate 50 μM alone, no phenformin, 24 h, vs negative control, mean ± SEM, read-out: Luminescence intensity (%), Phenformin (100 μM) −
[6] = candidate 50 μM + berberine 10 μM, relative to berberine alone (PC)
[7] = candidate 50 μM + linezolid 200 μM, relative to linezolid alone (PC)
[8] = candidate 50 μM + phenformin 100 μM, relative to phenformin alone (PC)
[9] = candidate 50 μM alone, no berberine, 24 h, vs negative control, mean ± SEM
[10] = candidate 50 μM alone, no linezolid, 24 h, vs negative control, mean ± SEM
[11] = candidate 50 μM alone, no phenformin, 24 h, vs negative control, mean ± SEM

SMILES | activity at 50 µM [1, 3] | activity at 50 µM [1, 4] | activity at 50 µM [1, 5] | Lactic acid value vs. PC (%) [1, 6] | Lactic acid-decreasing rate vs. PC (%) [1, 6] | Lactic acid value vs. PC (%) [1, 7] | Lactic acid-decreasing rate vs. PC (%) [1, 7] | Lactic acid value vs. PC (%) [1, 8] | Lactic acid-decreasing rate vs. PC (%) [1, 8] | Lactic acid value vs. PC (%) [2, 6] | Lactic acid-decreasing rate vs. PC (%) [2, 6] | Lactic acid value vs. PC (%) [2, 7] | Lactic acid-decreasing rate vs. PC (%) [2, 7] | Lactic acid value vs. PC (%) [2, 8] | Lactic acid-decreasing rate vs. PC (%) [2, 8] | activity at 50 µM [2, 3] | activity at 50 µM [2, 4] | activity at 50 µM [2, 5] | also measured
C#CCN(C)Cc1ccccc1 [Pargyline] | 96.1 ± 1.32% | 96.1 ± 1.32% | 96.1 ± 1.32% | 101.56% | −1.56% | 88.70% | 11.30% | 100.88% | −0.88% | 101.89% | −1.89% | 98.24% | 1.76% | 95.59% | 4.41% | 95.68 ± 0.7% | 95.68 ± 0.7% | 95.68 ± 0.7% | –
O=CC(=O)c1ccccc1 [Phenylglyoxal] | 93.7 ± 1.34% | 93.7 ± 1.34% | 93.7 ± 1.34% | 90.06% | 9.94% | 88.89% | 11.11% | 96.12% | 3.88% | 90.18% | 9.82% | 82.74% | 17.26% | 89.61% | 10.39% | 97.3 ± 1.03% | 97.3 ± 1.03% | 97.3 ± 1.03% | –
C=C(OP(=O)([O-])O)C(=O)O.O.[Na+] [Phospho(enol)pyruvic acid monosodium salt hydrate] | – | – | – | 93.05% | 6.95% | 89.30% | 10.70% | 91.45% | 8.55% | 90.07% | 9.93% | 92.96% | 7.04% | 94.91% | 5.09% | – | – | – | Luminescence intensity (%), Berberine (10 μM) − [1, 9]: 94.55 ± 1.37 %; Luminescence intensity (%), Linezolid (200 μM) − [1, 10]: 94.55 ± 1.37 %; Luminescence intensity (%), Phenformin (100 μM) − [1, 11]: 94.55 ± 1.37 %; Luminescence intensity (%), Berberine (10 μM) − [2, 9]: 100.07 ± 1.80^ %; Luminescence intensity (%), Linezolid (200 μM) − [2, 10]: 100.07 ± 1.80^ %; Luminescence intensity (%), Phenformin (100 μM) − [2, 11]: 100.07 ± 1.80^ %
